Results as given in patent US20100184698A1, “USE OF A […] […] A […] AGENT” (priority 2007, published 2010).
Where no end group is shown, it is not given here.

What was measured:
HCMV strain AD169 = settings: for inhibition of HCMV plaque formation as compared to the virus control experiment: 10 micrograms per ml, 7-10 days
[1] = test system: hepatitis B virus (HBV) ayw strain in HepG2-2.2.15 cells; assay: HBV experimental assay system (secreted HBV DNA, TaqMan PCR); format: cell-based; settings: 10 micrograms per ml; 6 days; combination 0.95 mole peptide 1 and 1.05 mole peptide 2
[2] = test system: Interleukin-4 (IL-4) production in murine spleen cells; assay: Th1/Th2 cytokine profiling assay: IL-4; format: cell-based, Balb/c mice; settings: 10 micrograms per ml, Ovalbumin restimulation, 72 hours
[3] = test system: Interferon-γ (IFN-γ) production in murine spleen cells; assay: Th1/Th2 cytokine profiling assay: IFN-γ; format: cell-based, Balb/c mice; settings: 10 micrograms per ml; Ovalbumin restimulation, 72 hours; combination 0.95:1.05 mole
[4] = test system: Interleukin-2 (IL-2) production in murine spleen cells; assay: Th1/Th2 cytokine profiling assay: IL-2; format: cell-based, Balb/c mice; settings: 10 micrograms per ml; Ovalbumin restimulation, 72 hours
[5] = test system: Interleukin-5 (IL-5) production in murine spleen cells; assay: Th1/Th2 cytokine profiling assay: IL-5; format: cell-based, Balb/c mice; settings: 10 micrograms per ml, Ovalbumin restimulation, 72 hours
[6] = test system: Tumor Necrosis Factor-α (TNF-α) production in murine spleen cells; assay: Th1/Th2 cytokine profiling assay: TNF-α; format: cell-based, Balb/c mice; settings: 10 micrograms per ml, Ovalbumin restimulation, 72 hours
[7] = test system: Primary Human endothelial cells (HUVEC); assay: Endothelial cell migration assay; format: cell-based; settings: 10 micrograms per ml; 22 hours
Method: Thereafter, designated concentration of testing peptides—10 micrograms per ml—was added in duplicate wells.

HUVEC = assay: Endothelial tube formation assay; format: cell-based, human; settings: 10 micrograms per ml; 20 hours
Description: Positive control was vehicle only.

HIV-1IIIB = assay: HIV-1 antiviral assay in CEM-SS cells

Molecule	inhibition of HBV replication as compared to the virus control infection [1] [%]	production of IFN-y, decreased by [3] [%]	inhibition of the migration of human endothelial cells [7] [%]	inhibition of the tube formation of human endothelial cells (HUVEC) [%]	inhibition of HCMV plaque formation as compared to the virus control experiment (HCMV strain AD169)	antiviral activity of positive control compounds (HIV-1IIIB)	further results
Nc1nc(O)c2ncn(COC(CO)CO)c2n1 [Ganciclovir, reference compound]							antiviral activity of positive control compound (HCMV strain AD169; positive control, MRC-5 cells, HCMV): expected levels of antiviral activity
Ile-Asn-Leu-Lys-Ala-Leu-Ala-Ala-Leu-Ala-Lys-Lys-Ile-Leu-NH2 (INLKALAALAKKIL-NH2) [Peptide 2]	40.6	54	23	10	did not inhibit		change of the production of IL-4 ([2]; combination 0.95:1.05 mole): did not significantly change; production of IL-2, increased by [4]: 77%; change of the production of IL-5 ([5]; combination 0.95:1.05 mole): did not significantly change; production of TNF-a, decreased by [6]: 61.3%
Cc1cn([C@H]2C[C@H](N=[N+]=[N-])[C@@H](CO)O2)c(=O)[nH]c1=O [AZT]						expected levels of antiviral activity	
CC(C)(C)NC(=O)[C@@H]1CN(Cc2cccnc2)CCN1C[C@@H](O)C[C@@H](Cc1ccccc1)C(=O)N[C@H]1c2ccccc2C[C@H]1O [indinavir]						expected levels of antiviral activity	
CCNC(=O)[C@@H]1CCCN1C(=O)[C@H](CCCN=C(N)N)NC(=O)[C@H](CC(C)C)NC(=O)[C@@H](Cc1c[nH]c2ccccc12)NC(=O)[C@H](Cc1ccc(O)cc1)NC(=O)[C@H](CO)NC(=O)[C@H](Cc1c[nH]c2ccccc12)NC(=O)[C@H](Cc1cnc[nH]1)NC(=O)[C@@H]1CCC(=O)N1 [Peptide 1, Pyr-His-Trp-Ser-Tyr-D-Trp-Leu-Arg-Pro-NHEt]	15.1	31.4	3	7	did not inhibit		production of IL-4, induced by [2]: 32.1%; production of IL-2, decreased by [4]: 53.2%; production of IL-5, decreased by [5]: 27.6%; change of the production of TNF-alpha ([6]; combination 0.95:1.05 mole): did not significantly change
